US20170281700A1, “PHAGE THERAPY FOR TARGETING ENTEROCOCCI” (priority 2014, published 2017)

System: E. faecalis V583 VRE
Type: cell-based, Enterococcus faecalis
Text: The insert depicts the clot model.
E. faecalis V583 (VRE) is an example of a vancomycin resistant E. faecalis that was announced by the Centers for Disease Control (CDC) as one of the major bacterial threats today.

What does the source list for `CN[C@H](CC(C)C)C(=O)N[C@H]1C(=O)N[C@@H](CC(N)=O)C(=O)N[C@H]2C(=O)N[C@H]3C(=O)N[C@H](C(=O)N[C@H](C(=O)O)c4cc(O)cc(O)c4-c4cc3ccc4O)[C@H](O)c3ccc(c(Cl)c3)Oc3cc2cc(c3O[C@@H]2O[C@H](CO)[C@@H](O)[C@H](O)[C@H]2O[C@H]2C[C@](C)(N)[C@H](O)[C@H](C)O2)Oc2ccc(cc2Cl)[C@H]1O` [vancomycin]?
colony growth on agar plate from seeded culture aliquots (24 hours incubation in 37 °C): growth was observed; effect on growth and viability (EFLK1 2.5×10^7 phages/ml, vancomycin 15 μg/ml): somewhat affects its growth and viability
